From US10807970B2 (priority 2016, dated 2020)
Read-outs that look alike come from different tables or passages of the source. Blank lines part the entries; values can stand above or below the compound they belong to.

Target: human σ1 receptor (Homo sapiens, UniProt Q99720)
Test: Human σ1 receptor radioligand assay ([3H](+)-pentazocine, transfected HEK-293 membranes)
Assay type: binding
Set-up: μ and σ1 dual binding: key to the marks not given beside the values
Conditions: one class symbol for both Ki-σ1 (human σ1 receptor, A1) and Ki-μ (human μ-opioid receptor, A2)
In short: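 Membranes from HEK-293 cells transfected with human σ1 receptor (7 μg) incubated with 5 nM [3H](+)-pentazocine in 50 mM Tris-HCl pH 8, 120 min at 37° C. Non-specific binding defined with 10 μM haloperidol. Bound radioligand separated by filtration, washed with ice-cold 10 mM Tris-HCl pH 7.4, and counted by scintillation.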

[1] = read-out: μ and σ1 dual binding

Sequence of human σ1 receptor (Q99720 whole entry): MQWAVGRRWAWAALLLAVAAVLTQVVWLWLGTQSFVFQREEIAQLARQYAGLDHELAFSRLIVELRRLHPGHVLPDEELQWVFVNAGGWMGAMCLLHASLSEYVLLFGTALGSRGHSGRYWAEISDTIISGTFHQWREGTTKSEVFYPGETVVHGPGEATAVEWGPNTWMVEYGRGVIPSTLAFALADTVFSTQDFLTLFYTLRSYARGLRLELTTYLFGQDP

SMILES: C[C@H]1C[C@@](C(=O)c2ccccn2)(N2CCN(Cc3ccccc3)CC2)CCO1 [Example 155, ((2S,4S)-4-(4-benzylpiperazin-1-yl)-2-methyltetrahydro-2H-pyran-4-yl)(pyridin-2-yl)methanone]
- μ and σ1 dual binding: ++

SMILES: CC[C@@]1(N2CCN(Cc3ccc(C#N)cc3)CC2)CCO[C@@H](C)C1 (stereo in doubt) [Example 186, 4-((4-(4-ethyl-2-methyltetrahydro-2H-pyran-4-yl)piperazin-1-yl)methyl)benzonitrile]
- μ and σ1 dual binding: ++

SMILES: CCC1(N2CCN(CCc3cc(F)ccc3F)CC2)CCOC(C)(C)C1 (stereo not drawn) [Example 99, 1-(2,5-difluorophenethyl)-4-(4-ethyl-2,2-dimethyltetrahydro-2H-pyran-4-yl)piperazine]
- Ki (μ and σ1 dual binding): < 0.5 µM

SMILES: CC(C)CN1CCN(C2(C(=O)c3ccccc3)CCOC(C)(C)C2)CC1 (stereo not drawn) [Example 11, (4-(4-isobutylpiperazin-1-yl)-2,2-dimethyltetrahydro-2H-pyran-4-yl)(phenyl)methanone]
- μ and σ1 dual binding: ++

SMILES: CC(C)CCN1CCN([C@@]2(C(=O)c3ccccn3)CCO[C@H](C)C2)CC1 [Example 97]
- μ and σ1 dual binding: ++

- Ki [1]: > 0.5 µM
SMILES: CCOCCCN1CCC(C2(C(=O)c3ccccn3)CCOC(C)(C)C2)CC1 (stereo not drawn) [Example 103]

SMILES: CC(C)CCN(C)[C@H]1CCN([C@@]2(C(=O)c3ccccn3)CCOC(C)(C)C2)C1 [Example 151, ((S)-4-((S)-3-(isopentyl(methyl)amino)pyrrolidin-1-yl)-2,2-dimethyltetrahydro-2H-pyran-4-yl)(pyridin-2-yl)methanone]
- Ki (μ and σ1 dual binding): < 0.5 µM

SMILES: CC(C)CCN1CCN([C@@]2(C(=O)c3ccccn3)CCO[C@@H](C)C2)CC1 [Example 247, ((2S,4S)-4-(4-isopentylpiperazin-1-yl)-2-methyltetrahydro-2H-pyran-4-yl)(pyridin-2-yl)methanone]
- μ and σ1 dual binding: ++

- Ki [1]: > 0.5 µM
SMILES: N#Cc1ccc(CN2CCN(C3(C(=O)c4ccccn4)CCOCC3)CC2)cc1F [Example 192, 2-fluoro-4-((4-(4-picolinoyltetrahydro-2-pyran-4-yl)piperazin-1-yl)methyl)benzonitrile]

SMILES: CC(C)CCN(C)[C@@H]1CCN([C@@]2(C(=O)c3ccccn3)CCOC(C)(C)C2)C1 [Example 148, ((S)-4-((R)-3-(isopentyl(methyl)amino)pyrrolidin-1-yl)-2,2-dimethyltetrahydro-2H-pyran-4-yl)(pyridin-2-yl)methanone]
- Ki (μ and σ1 dual binding): < 0.5 µM

SMILES: CC(C)OCCN1CCC([C@]2(C(=O)c3ccccn3)CCOC(C)(C)C2)CC1 [Example 244, (S)-(4-(1-(2-isopropoxyethyl)piperidin-4-yl)-2,2-dimethyltetrahydro-2H-pyran-4-yl)(pyridin-2-yl)methanone]
- μ and σ1 dual binding: ++

SMILES: CC(C)CCN1CCN(C2(C)CCOCC2)CC1 [Example 178, 1-isopentyl-4-(4-methyltetrahydro-2H-pyran-4-yl)piperazine]
- μ and σ1 dual binding: ++

SMILES: C[C@@H]1C[C@@](C(=O)c2ccccn2)(N2CCN(CCc3ccccc3)CC2)CCO1 [Example 26]
- Ki [1]: < 0.5 µM

- Ki [1]: > 0.5 µM
SMILES: CC1(C)CC(C(=O)c2ccccn2)(N2CCN(Cc3ccncc3)CC2)CCO1 (stereo not drawn) [Example 59, (2,2-dimethyl-4-(4-(pyridin-4-ylmethyl)piperazin-1-yl)tetrahydro-2H-pyran-4-yl)(pyridin-2-yl)methanone]

SMILES: O=C(c1cccc(C(F)(F)F)n1)C1(N2CCN(Cc3ccccc3)CC2)CCOC2(CCCC2)C1 (stereo not drawn) [Example 6, (9-(4-benzylpiperazin-1-yl)-6-oxaspiro[4.5]decan-9-yl)(6-(trifluoromethyl)pyridin-2-yl)methanone]
- Ki (μ and σ1 dual binding): < 0.1 µM

SMILES: CC(C)CN1CCN(C2(C(=O)c3ccccn3)CCOC(C)(C)C2)CC1 (stereo not drawn) [Example 14, (4-(4-isobutylpiperazin-1-yl)-2,2-dimethyltetrahydro-2H-pyran-4-yl)(pyridin-2-yl)methanone]
- Ki [1]: > 0.5 µM

SMILES: CC(C)(O)CCN1CCN(C2(C(=O)c3ccccn3)CCOC(C)(C)C2)CC1 (stereo not drawn) [Example 90, (4-(4-(3-hydroxy-3-methylbutyl)piperazin-1-yl)-2,2-dimethyltetrahydro-2H-pyran-4-yl)(pyridin-2-yl)methanone]
- μ and σ1 dual binding: ++

SMILES: O=C(c1ccccn1)C1(N2CCN(Cc3ccc(F)cc3)CC2)CCOCC1 [Example 181, (4-(4-(4-fluorobenzyl)piperazin-1-yl)tetrahydro-2H-pyran-4-yl)(pyridin-2-yl)methanone]
- μ and σ1 dual binding: ++

- Ki [1]: > 0.5 µM
SMILES: CC1(C)CC(C(=O)c2ccccn2)(N2CCN(CCc3ccncc3)CC2)CCO1 (stereo not drawn) [Example 81, (2,2-dimethyl-4-(4-(2-(pyridin-4-yl)ethyl)piperazin-1-yl)tetrahydro-2H-pyran-4-yl)(pyridin-2-yl)methanone]

SMILES: CC[C@]1(N2CCN(CCC(C)C)CC2)CCO[C@@H](C)C1 [Example 159, 1-((2S,4S)-4-ethyl-2-methyltetrahydro-2H-pyran-4-yl)-4-isopentylpiperazine]
- μ and σ1 dual binding: ++

SMILES: CC1(C)CC(C(=O)c2ccccn2)(N2CCN(Cc3ccccn3)CC2)CCO1 (stereo not drawn) [Example 50, (2,2-dimethyl-4-(4-(pyridin-2-ylmethyl)piperazin-1-yl)tetrahydro-2H-pyran-4-yl)(pyridin-2-yl)methanone]
- μ and σ1 dual binding: ++

SMILES: CC1(C)CC(C(=O)c2ccccc2)(N2CCN(Cc3ccccc3)CC2)CCO1 (stereo not drawn) [Example 9, (4-(4-benzylpiperazin-1-yl)-2,2-dimethyltetrahydro-2H-pyran-4-yl)(phenyl)methanone]
- μ and σ1 dual binding: ++

SMILES: c1ccc(C2(N3CCN(Cc4ccccn4)CC3)CCOC3(CCCC3)C2)cc1 (stereo not drawn) [Example 120, 1-(9-phenyl-6-oxaspiro[4.5]decan-9-yl)-4-(pyridin-2-ylmethyl)piperazine]
- μ and σ1 dual binding: ++

- Ki [1]: > 0.5 µM
SMILES: COc1ccc(CN2CCN(C3(C(=O)c4ccccn4)CCOCC3)CC2)cc1F [Example 196, (4-(4-(3-fluoro-4-methoxybenzyl)piperazin-1-yl)tetrahydro-2H-pyran-4-yl)(pyridin-2-yl)methanone]

SMILES: CC1(C)CC(C(=O)c2ccccn2)(N2CCN(CCC3CC3)CC2)CCO1 (stereo not drawn) [Example 128, (4-(4-(2-cyclopropylethyl)piperazin-1-yl)-2,2-dimethyltetrahydro-2H-pyran-4-yl)(pyridin-2-yl)methanone]
- Ki (μ and σ1 dual binding): < 0.5 µM

SMILES: CC[C@@]1(N2CCN(Cc3ccccc3)CC2)CCO[C@@H](C)C1 [Example 164, 1-benzyl-4-((2S,4R)-4-ethyl-2-methyltetrahydro-2H-pyran-4-yl)piperazine]
- μ and σ1 dual binding: ++

SMILES: CC(C)CCN(C)[C@@H]1CCN([C@]2(C(=O)c3ccccn3)CCOC(C)(C)C2)C1 [Example 149, ((R)-4-((R)-3-(isopentyl(methyl)amino)pyrrolidin-1-yl)-2,2-dimethyltetrahydro-2H-pyran-4-yl)(pyridin-2-yl)methanone]
- μ and σ1 dual binding: ++

- Ki [1]: > 0.5 µM
SMILES: CCC1(C2CCN(Cc3ccccc3)CC2)CCOCC1 [Example 166, 1-benzyl-4-(4-ethyltetrahydro-2H-pyran-4-yl)piperidine]

SMILES: CCC1(C2CCN(CCc3ccccc3)CC2)CCOC(C)(C)C1 (stereo not drawn) [Example 173, 4-(4-ethyl-2,2-dimethyltetrahydro-2H-pyran-4-yl)-1-phenethylpiperidine]
- μ and σ1 dual binding: ++

SMILES: CC(C)OCCN1CCN(C2(C)CCOCC2)CC1 [Example 184, 1-(2-isopropoxyethyl)-4-(4-methyltetrahydro-2H-pyran-4-yl)piperazine]
- μ and σ1 dual binding: ++

SMILES: CC(C)CCN(C)[C@H]1CCN([C@]2(C(=O)c3ccccn3)CCOC(C)(C)C2)C1 [Example 150, ((R)-4-((S)-3-(isopentyl(methyl)amino)pyrrolidin-1-yl)-2,2-dimethyltetrahydro-2H-pyran-4-yl)(pyridin-2-yl)methanone]
- Ki (μ and σ1 dual binding): < 0.5 µM

SMILES: O=C(c1ccccc1)C1(N2CCN(Cc3ccccc3)CC2)CCOC2(CCCC2)C1 (stereo not drawn) [Example 4, (9-(4-benzylpiperazin-1-yl)-6-oxaspiro[4.5]decan-9-yl)(phenyl)methanone]
- Ki (μ and σ1 dual binding): < 0.1 µM

- Ki [1]: > 0.5 µM
SMILES: COc1ccc(CN2CCN(C3(C(=O)c4ccccn4)CCOCC3)CC2)cc1 [Example 195, (4-(4-(4-methoxybenzyl)piperazin-1-yl)tetrahydro-2H-pyran-4-yl)(pyridin-2-yl)methanone]

- Ki [1]: > 0.5 µM
SMILES: COc1cc(CN2CCN(C3(C(=O)c4ccccn4)CCOCC3)CC2)ccc1F [Example 198, (4-(4-(4-fluoro-3-methoxybenzyl)piperazin-1-yl)tetrahydro-2H-pyran-4-yl)(pyridin-2-yl)methanone]

SMILES: CC1(C)CC(C(=O)c2ccccn2)(N2CCN(Cc3ccc(F)cc3)CC2)CCO1 (stereo not drawn) [Example 60, (4-(4-(4-fluorobenzyl)piperazin-1-yl)-2,2-dimethyltetrahydro-2H-pyran-4-yl)(pyridin-2-yl)methanone]
- Ki (μ and σ1 dual binding): < 0.5 µM

- Ki [1]: > 0.5 µM
SMILES: CC[C@]1(N2CCN(Cc3ccc(C#N)cc3)CC2)CCO[C@@H](C)C1 (stereo in doubt) [Example 187, 4-((4-(4-ethyl-2-methyltetrahydro-2H-pyran-4-yl)piperazin-1-yl)methyl)benzonitrile]

SMILES: CC(C)OCCN1CCN([C@@]2(C(=O)c3ccccn3)CCOC(C)(C)C2)CC1 [Example 134, (S)-(4-(4-(2-isopropoxyethyl)piperazin-1-yl)-2,2-dimethyltetrahydro-2H-pyran-4-yl)(pyridin-2-yl)methanone]
- μ and σ1 dual binding: ++

SMILES: CC(C)CCN1CCN([C@]2(C(=O)c3ccccn3)CCOC(C)(C)C2)CC1 [Example 133, (R)-(4-(4-isopentylpiperazin-1-yl)-2,2-dimethyltetrahydro-2H-pyran-4-yl)(pyridin-2-yl)methanone]
- Ki (μ and σ1 dual binding): < 0.1 µM

SMILES: CC[C@@]1(N2CCN(CCOC(C)C)CC2)CCO[C@@H](C)C1 [Example 158, 1-((2S,4R)-4-ethyl-2-methyltetrahydro-2H-pyran-4-yl)-4-(2-isopropoxyethyl)piperazine]
- μ and σ1 dual binding: ++
